Measurements reported in PubChem BioAssay (NCI).
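Test compounds were applied to cells in 96-well plates for 48 hours at 5 doses. GI50: concentration for 50% inhibition of growth. Definition used: TGI = concentration required for complete inhibition of growth.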

Experiments:
Test in all cases: DTP human tumour cell line panel, 48 h
786-0 renal = tested on: 786-0 renal
A498 renal = tested on: A498 renal
A549 NSCLC = tested on: A549 NSCLC
MDA-MB-231 breast = tested on: MDA-MB-231 breast
MDA-MB-435 = tested on: MDA-MB-435
OVCAR-3 ovarian = tested on: OVCAR-3 ovarian
OVCAR-8 ovarian = tested on: OVCAR-8 ovarian
SR leukemia = tested on: SR leukemia

SMILES	GI50 (786-0 renal)	TGI (786-0 renal)	GI50 (A498 renal)	TGI (A498 renal)	GI50 (A549 NSCLC)	TGI (A549 NSCLC)	GI50 (MDA-MB-231 breast)	TGI (MDA-MB-231 breast)	GI50 (MDA-MB-435)	TGI (MDA-MB-435)	GI50 (OVCAR-3 ovarian)	TGI (OVCAR-3 ovarian)	GI50 (OVCAR-8 ovarian)	TGI (OVCAR-8 ovarian)	GI50 (SR leukemia)	TGI (SR leukemia)
N#Cc1nc2c(S(=O)(=O)c3ccc(Cl)cc3)c(N)n(CCCN3CCOCC3)c2nc1C#N	17.3 µM	52.8 µM	2.6 µM	14.6 µM	19.5 µM	84.1 µM	3.58 µM	14.4 µM	2.21 µM	5.82 µM	3.29 µM	15.3 µM	4.07 µM	> 100 µM	3.58 µM	31 µM
CC1=C(CCC(C)NCc2ccc(OCCCN3CCCCC3)cc2)C(C)(C)CCC1 (stereo not drawn)	1.6 µM	3.1 µM	1.43 µM	2.95 µM	2.17 µM	4.35 µM	1.02 µM	2.73 µM	0.216 µM	0.528 µM	1.79 µM	4.07 µM	2.48 µM	5.31 µM	0.221 µM	0.608 µM
Cc1[nH]c2ccc(F)cc2c1-c1nc2c3cccnc3c3ncccc3c2[nH]1	0.327 µM	> 100 µM	0.944 µM	> 100 µM	0.701 µM	> 100 µM	0.277 µM	> 100 µM	0.426 µM	> 100 µM	0.268 µM	> 100 µM	0.345 µM	> 100 µM	0.134 µM	> 100 µM
c1ccc2[nH]c(-c3cc(-c4ccc5c(c4)OCO5)n[nH]3)nc2c1	4.58 µM	17.4 µM	1.7 µM	12.8 µM	4.23 µM	19.7 µM	4.12 µM	20.2 µM	3.12 µM	15.6 µM	3.21 µM	14.6 µM	3.97 µM	18 µM	3.37 µM	16.8 µM
Nc1c(C(=O)c2cccc(-c3cccnc3)c2)cnn1-c1ccc(F)cc1F	18.1 µM	> 25 µM	2.64 µM	> 23 µM	2.05 µM	> 25 µM	3.8 µM	> 25 µM	0.476 µM	1.36 µM	3.93 µM	> 25 µM	8.13 µM	> 25 µM	0.823 µM	> 6.83 µM
N#CSCc1ccc(Cl)c(CSC#N)c1	0.301 µM	17.4 µM	0.273 µM	4.04 µM	1.44 µM	> 58.4 µM	2.36 µM	> 64 µM	0.133 µM	3.81 µM	0.165 µM	18.1 µM	0.298 µM	> 73.6 µM	0.0642 µM	19.2 µM
O=[N+]([O-])c1ccc(N2CCC(CCCC3CCN(c4ccc([N+](=O)[O-])cc4[N+](=O)[O-])CC3)CC2)c([N+](=O)[O-])c1		28.7 µM		31.8 µM		31.8 µM		36 µM		26.8 µM		34.5 µM		33.3 µM		74.7 µM
O=[N+]([O-])c1ccc(N=Nc2ccc(O)c3ccccc23)cc1	8.59 µM	> 100 µM	3.32 µM	86.8 µM	12 µM	> 100 µM	1.43 µM	20.8 µM	5.31 µM	19.1 µM	1.77 µM	6 µM	3.1 µM	> 100 µM	2.99 µM	23.4 µM
COc1ccc(CC(=O)c2ccc(O)cc2O)cc1	> 100 µM	> 100 µM	29.3 µM	> 100 µM	> 100 µM	> 100 µM	> 100 µM	> 100 µM	> 100 µM	> 100 µM	61.5 µM	> 100 µM	> 100 µM	> 100 µM	> 100 µM	> 100 µM
O=C1NOC(c2ccc(O)cc2)(c2ccc(O)cc2)c2ccccc21	> 100 µM	> 100 µM	> 100 µM	> 100 µM	> 100 µM	> 100 µM	> 100 µM	> 100 µM	> 100 µM	> 100 µM	> 100 µM	> 100 µM	> 100 µM	> 100 µM	> 100 µM	> 100 µM
COc1ccc(C2=C(c3ccc(OC)c(OC)c3)C(=O)N3CCCC3C2)cc1 (stereo not drawn)	27.6 µM	> 100 µM	34.1 µM	> 100 µM	15.1 µM	> 100 µM	22 µM	> 100 µM	25.7 µM	> 100 µM	23.9 µM	> 93.8 µM	21.7 µM	> 100 µM	3.02 µM	12.8 µM
C=C1c2ccoc2C[C@H]2[C@H]1CC[C@@]1(O)[C@@](C)(C(=O)OC)CCC[C@]21C	40.1 µM	> 100 µM	21.9 µM	40.8 µM	25.5 µM	> 100 µM	36.6 µM	> 100 µM	23.9 µM	54.3 µM	17.4 µM	43.3 µM	> 100 µM	> 100 µM	13.1 µM	31.6 µM
Cc1ccc(-c2nc3nc(-c4ccccc4)nc(N4CCNCC4)c3o2)cc1	0.585 µM	1.27 µM	1.47 µM	2.97 µM	0.788 µM	2.5 µM	0.226 µM	0.537 µM	1.58 µM	3.04 µM	0.187 µM	0.352 µM	0.366 µM	1.19 µM	0.223 µM	0.611 µM
O=C1C(SCCO)=C(SCCO)C(=O)N1c1ccc(-c2ccccc2)cc1	1.33 µM	2.84 µM	18 µM	37.9 µM	10.2 µM	27 µM	13.3 µM	32.7 µM	4.98 µM	12.8 µM	0.897 µM	2.32 µM	2 µM	5.82 µM	0.182 µM	> 100 µM
COC(=O)Nc1nc2ccc(Oc3cccc(NC(=O)Nc4cc(C(F)(F)F)ccc4F)c3)cc2[nH]1	> 25 µM	> 25 µM	9.46 µM	> 25 µM	16 µM	> 25 µM	11.4 µM	> 25 µM	5.78 µM	18.8 µM	14 µM	> 25 µM	> 25 µM	> 25 µM	10.2 µM	> 25 µM
Cc1cn2c(/C=C3/C(=O)Nc4ccc(O)cc43)c(C)nc2s1	4.95 µM	> 100 µM	19.1 µM	67.7 µM	19.9 µM	> 80.6 µM	2.82 µM	> 62.4 µM	0.169 µM	1.15 µM	0.486 µM	> 22.6 µM	10.4 µM	> 51.7 µM	0.316 µM	13.6 µM
COc1ccc(N(/C=C/C(=O)C(F)(F)F)CC(=O)c2ccc(F)cc2)cc1	21.1 µM	52.4 µM	14.2 µM	37.8 µM	32 µM	> 100 µM	16.1 µM	48.4 µM	19.9 µM	52.2 µM	21.2 µM	48.6 µM	32.1 µM	> 100 µM	19.1 µM	44.3 µM
O1[As]2O[As]3O[As]1O[As](O2)O3	0.528 µM	1.82 µM	0.0875 µM	0.352 µM	3.29 µM	14.9 µM	0.648 µM	2.96 µM	1.64 µM	7.69 µM	0.283 µM	0.72 µM	1.89 µM	13.6 µM	0.295 µM	3.7 µM
CC[C@H](CO)Nc1nc(NCc2ccccc2)c2ncn(C(C)C)c2n1	31.9 µM	> 100 µM	30.1 µM	> 88.7 µM	20.1 µM	> 100 µM	32.2 µM	> 100 µM	20.1 µM	> 73.6 µM	12.9 µM	> 67.4 µM	29.3 µM	> 100 µM		> 79.8 µM
Cc1ccc(C(=O)NC2CCC2)cc1-c1ccc(C(=O)NCC2CC2)cc1	> 25 µM	> 25 µM	25 µM	> 25 µM	> 25 µM	> 25 µM	> 25 µM	> 25 µM	> 25 µM	> 25 µM	> 25 µM	> 25 µM	> 25 µM	> 25 µM	> 25 µM	> 25 µM
Nc1c(C(=O)c2cccc(C#CCO)c2)cnn1-c1ccc(F)cc1	> 25 µM	> 25 µM	> 18.5 µM	> 25 µM	> 25 µM	> 25 µM	> 25 µM	> 25 µM	> 25 µM	> 25 µM	> 25 µM	> 25 µM	> 25 µM	> 25 µM	> 25 µM	> 25 µM
Cc1nn(-c2ccc(Cl)cc2)c2nc3c(nc12)C(=O)C(=O)c1ccccc1-3	5.39 µM	25.9 µM	1.27 µM	2.96 µM	2.06 µM	4.08 µM	4.31 µM	66.3 µM	6.31 µM	> 100 µM	3.48 µM	> 100 µM	21.7 µM	> 100 µM	7.28 µM	> 100 µM
